Where a name gives a salt, the structure may show the parent alone.
Target: T1, LSD1 (Homo sapiens, UniProt O60341)
T1 construct: endogenous in cells; host or cells: Embryoid bodies formed from control human iPSC line CTR1R-C3
Test: Embryoid body formation assay with LSD1 inhibitor treatment, RT-qPCR of GTF2I target genes
Format: cell-based
Conditions: control iPSC line, treatment for 5 days at day 0 and day 4, final concentration 5 uM (Oryzon), 10 uM (DDP26095)
Procedure: Retrotranscribed cDNAs have been obtained from 1 μg of total DNA-depleted RNA using the superscript VILO retrotranscription kit from Life Technologies according to manufacturer instructions.
For real time q-PCR analysis a total amount of cDNA corresponding to 10-50 ng of starting RNA has been used for each reaction. FAST SYBR green master mix from Life Technologies and 10 μM primers pair have been used.
10 uM RA has been added at day 0 or at day 4. At day 1 EBs have been plated on a low attachment dish and media was replaced with KO-DMEM (+P/S+Glut)(EB media) 20% FBS containing. […] Next, RNA extraction and cDNA preparation has been performed as described above.

Compound | BEND4 mRNA level (RT-qPCR, percentage of GAPDH) upon irreversible LSD1 inhibition
N[C@@H]1C[C@H]1c1ccc(NC(=O)c2cccc(N3CCOC3=O)c2)cc1 (relative stereo) [DDP26095, N-[4-[trans-2-aminocyclopropyl]phenyl]-3-(2-oxooxazolidin-3-yl)benzamide hydrochloride] | increased
Cl.N[C@H]1CC[C@H](N[C@@H]2C[C@H]2c2ccccc2)CC1 [Oryzon, (trans)-N1-((1R,2S)-2-phenylcyclopropyl)cyclohexane-1,4-diamine hydrochloride] | increased

— patent publication US11369577B2, “Reprogramming-based models of neurodevelopmental disorders and uses thereof” (IEO—Istituto Europeo di Oncologia S.r.l., priority 2014, dated 2022)
